Experimental data as given in PubChem BioAssay (NCI).
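Results reflect a 48-hour exposure of cells in 96-well plates to compound at five concentrations. GI50 is the concentration that inhibits growth by half. TGI is the concentration that stops growth completely.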

Experiments:
Assay in all cases: growth of human tumour cells (NCI), 48 h
[1] = tested on: 786-0 renal
[2] = tested on: ACHN renal
[3] = tested on: BT-549 breast
[4] = tested on: COLO 205 colon
[5] = tested on: EKVX NSCLC
[6] = tested on: HCT-116 colon
[7] = tested on: HCT-15 colon
[8] = tested on: HT29 colon
[9] = tested on: NCI-H23 lung
[10] = tested on: OVCAR-5 ovarian
[11] = tested on: SK-MEL-2 melanoma
[12] = tested on: SK-MEL-5 melanoma
[13] = tested on: SN12C renal
[14] = tested on: SNB-19 CNS
[15] = tested on: UACC-257 melanoma
[16] = tested on: UACC-62 melanoma
[17] = tested on: A549 NSCLC
[18] = tested on: CCRF-CEM leukemia
[19] = tested on: DU-145 prostate
[20] = tested on: HCC-2998 colon
[21] = tested on: HL-60(TB) leukemia
[22] = tested on: HOP-62 NSCLC
[23] = tested on: HOP-92 NSCLC
[24] = tested on: HS 578T breast
[25] = tested on: IGROV1 ovarian
[26] = tested on: K-562 leukemia
[27] = tested on: KM12 colon
[28] = tested on: M14 melanoma
[29] = tested on: MALME-3M melanoma
[30] = tested on: MCF7 breast
[31] = tested on: MDA-MB-231 breast
[32] = tested on: MDA-MB-435
[33] = tested on: MOLT-4 leukemia
[34] = tested on: NCI-H226 lung
[35] = tested on: NCI-H460 lung
[36] = tested on: NCI/ADR-RES ovarian
[37] = tested on: OVCAR-4 ovarian
[38] = tested on: OVCAR-8 ovarian
[39] = tested on: RPMI-8226 leukemia
[40] = tested on: RXF 393 renal
[41] = tested on: SF-268 CNS
[42] = tested on: SF-295 CNS
[43] = tested on: SF-539 CNS
[44] = tested on: SK-MEL-28 melanoma
[45] = tested on: SK-OV-3 ovarian
[46] = tested on: SNB-75 CNS
[47] = tested on: SR leukemia
[48] = tested on: SW-620 colon
[49] = tested on: T-47D breast
[50] = tested on: TK-10 renal
[51] = tested on: U251 CNS
[52] = tested on: UO-31 renal
[53] = tested on: A498 renal
[54] = tested on: LOX IMVI melanoma
[55] = tested on: NCI-H522 lung
[56] = tested on: OVCAR-3 ovarian
[57] = tested on: CAKI-1 renal
[58] = tested on: PC-3 prostate

## CN(C)c1ccc(/C=C2\C[C@H]3[C@@H]4CCc5cc(OCCN6CCCC6)ccc5[C@H]4CC[C@]3(C)C2=O)cc1
[1]
  TGI: 2.6 µM
[2]
  TGI: 3.11 µM
[3]
  TGI: > 100 µM
[4]
  TGI: 2.85 µM
[5]
  TGI: 6.32 µM
[6]
  TGI: 2.45 µM
[7]
  TGI: 2.66 µM
[8]
  TGI: 0.814 µM
[9]
  TGI: > 100 µM
[10]
  TGI: 8.62 µM
[11]
  TGI: 3.93 µM
[12]
  TGI: 3.22 µM
[13]
  TGI: 2.97 µM
[14]
  TGI: 4.09 µM
[15]
  TGI: 5.35 µM
[16]
  TGI: 4.24 µM

## Cc1ccc2ccccc2c1NC1=NCCO1
[1]
  TGI: > 100 µM
[17]
  TGI: > 100 µM
[2]
  TGI: > 100 µM
[18]
  TGI: > 100 µM
[4]
  TGI: > 100 µM
[19]
  TGI: > 100 µM
[5]
  TGI: > 100 µM
[20]
  TGI: > 100 µM
[6]
  TGI: > 100 µM
[7]
  TGI: > 100 µM
[21]
  TGI: > 100 µM
[22]
  TGI: > 100 µM
[23]
  TGI: 46.8 µM
[24]
  TGI: > 100 µM
[8]
  TGI: > 100 µM
[25]
  TGI: > 100 µM
[26]
  TGI: > 100 µM
[27]
  TGI: > 100 µM
[28]
  TGI: > 100 µM
[29]
  TGI: > 100 µM
[30]
  TGI: > 100 µM
[31]
  TGI: > 100 µM
[32]
  TGI: > 100 µM
[33]
  TGI: > 100 µM
[34]
  TGI: 74.5 µM
[9]
  TGI: > 100 µM
[35]
  TGI: > 100 µM
[36]
  TGI: > 100 µM
[37]
  TGI: > 100 µM
[10]
  TGI: > 100 µM
[38]
  TGI: > 100 µM
[39]
  TGI: > 100 µM
[40]
  TGI: > 100 µM
[41]
  TGI: > 100 µM
[42]
  TGI: > 100 µM
[43]
  TGI: > 100 µM
[44]
  TGI: > 100 µM
[12]
  TGI: > 100 µM
[45]
  TGI: > 100 µM
[13]
  TGI: > 100 µM
[14]
  TGI: > 100 µM
[46]
  TGI: > 100 µM
[47]
  TGI: > 100 µM
[48]
  TGI: > 100 µM
[49]
  TGI: > 100 µM
[50]
  TGI: > 100 µM
[51]
  TGI: > 100 µM
[15]
  TGI: > 100 µM
[16]
  TGI: > 100 µM
[52]
  TGI: > 100 µM

## Cc1sc2nc(-c3ccc(Cl)c([N+](=O)[O-])c3)c(/C=N/N=C(N)N)n2c1C
[1]
  TGI: 1.92 µM
[53]
  TGI: 3.06 µM
[2]
  TGI: 2.77 µM
[3]
  TGI: 3.07 µM
[4]
  TGI: 1.31 µM
[5]
  TGI: 3.14 µM
[20]
  TGI: 2.64 µM
[7]
  TGI: 2.65 µM
[22]
  TGI: 1.7 µM
[8]
  TGI: 2.63 µM
[25]
  TGI: 2.44 µM
[27]
  TGI: 1.87 µM
[54]
  TGI: 2.44 µM
[28]
  TGI: 3.29 µM
[29]
  TGI: 3.68 µM
[32]
  TGI: 3.11 µM
[55]
  TGI: 3.34 µM
[36]
  TGI: 6.59 µM
[56]
  TGI: 3.5 µM
[10]
  TGI: 2.93 µM
[38]
  TGI: 2.03 µM
[40]
  TGI: 3.13 µM
[42]
  TGI: 3.4 µM
[43]
  TGI: 2.99 µM
[44]
  TGI: 2.18 µM
[45]
  TGI: 3.13 µM
[49]
  TGI: 4.76 µM
[50]
  TGI: 3.2 µM
[52]
  TGI: 3.07 µM

## COc1ccc(-n2nnnc2-c2c[nH]c3c(F)cc(F)cc23)cc1
[1]
  GI50: 31.5 µM
  TGI: > 100 µM
[53]
  GI50: 36.5 µM
  TGI: > 100 µM
[17]
  GI50: > 100 µM
  TGI: > 100 µM
[2]
  GI50: > 100 µM
  TGI: > 100 µM
[3]
  GI50: > 100 µM
  TGI: > 100 µM
[57]
  GI50: > 100 µM
  TGI: > 100 µM
[18]
  GI50: > 100 µM
  TGI: > 100 µM
[4]
  GI50: > 100 µM
  TGI: > 100 µM
[19]
  GI50: > 100 µM
  TGI: > 100 µM
[5]
  GI50: > 100 µM
  TGI: > 100 µM
[20]
  GI50: > 100 µM
  TGI: > 100 µM
[6]
  GI50: > 100 µM
  TGI: > 100 µM
[7]
  GI50: > 100 µM
  TGI: > 100 µM
[21]
  GI50: > 100 µM
  TGI: > 100 µM
[22]
  GI50: 37.5 µM
  TGI: > 100 µM
[24]
  GI50: > 100 µM
  TGI: > 100 µM
[8]
  GI50: > 100 µM
  TGI: > 100 µM
[25]
  GI50: > 100 µM
  TGI: > 100 µM
[26]
  GI50: > 100 µM
  TGI: > 100 µM
[27]
  GI50: > 100 µM
  TGI: > 100 µM
[54]
  GI50: 86.6 µM
  TGI: > 100 µM
[28]
  GI50: > 100 µM
  TGI: > 100 µM
[29]
  GI50: > 100 µM
  TGI: > 100 µM
[30]
  GI50: > 100 µM
  TGI: > 100 µM
[31]
  GI50: 27.1 µM
  TGI: > 100 µM
[32]
  GI50: > 100 µM
  TGI: > 100 µM
[33]
  GI50: > 100 µM
  TGI: > 100 µM
[34]
  GI50: > 100 µM
  TGI: > 100 µM
[9]
  GI50: > 100 µM
  TGI: > 100 µM
[35]
  GI50: > 100 µM
  TGI: > 100 µM
[55]
  GI50: 86 µM
  TGI: > 100 µM
[36]
  GI50: 40.6 µM
  TGI: > 100 µM
[56]
  GI50: > 100 µM
  TGI: > 100 µM
[37]
  GI50: 55 µM
  TGI: > 100 µM
[10]
  GI50: > 100 µM
  TGI: > 100 µM
[38]
  GI50: 39.6 µM
  TGI: > 100 µM
[58]
  GI50: > 100 µM
  TGI: > 100 µM
[39]
  GI50: > 100 µM
  TGI: > 100 µM
[40]
  GI50: 16.2 µM
  TGI: 45.4 µM
[41]
  GI50: 40.3 µM
  TGI: > 100 µM
[42]
  GI50: 24 µM
  TGI: 59.6 µM
[43]
  GI50: 52.8 µM
  TGI: > 100 µM
[11]
  GI50: > 100 µM
  TGI: > 100 µM
[44]
  GI50: > 100 µM
  TGI: > 100 µM
[12]
  GI50: > 100 µM
  TGI: > 100 µM
[45]
  GI50: 34.7 µM
  TGI: > 100 µM
[13]
  GI50: 86.3 µM
  TGI: > 100 µM
[14]
  GI50: 75.5 µM
  TGI: > 100 µM
[46]
  GI50: 24.3 µM
  TGI: 76.9 µM
[48]
  GI50: > 100 µM
  TGI: > 100 µM
[49]
  GI50: > 100 µM
  TGI: > 100 µM
[50]
  GI50: > 100 µM
  TGI: > 100 µM
[51]
  GI50: 32.2 µM
  TGI: > 100 µM
[15]
  GI50: > 100 µM
  TGI: > 100 µM
[16]
  GI50: > 100 µM
  TGI: > 100 µM
[52]
  GI50: 54 µM
  TGI: > 100 µM
